Assay results reported in patent US20250320206A1, “STAT6 DEGRADERS” (Gilead Sciences, Inc., priority 2024, published 2025).

Experiments:
STAT6 = target: T1, STAT6 (Homo sapiens, UniProt P42226); test: Stat6 Degrader Assay (HiBiT based, HeLa LgBiT clone 4.14); assay type: cell-based; conditions: HeLa LgBiT clone 4.14 HiBiT-STAT6, 4-24 h incubation; values given for compounds with >80% Emax; geometric mean; read-out: STAT6 degradation DC50
T1 construct: These cells express endogenous STAT6; host or cells: HeLa LgBiT clone 4.14
T1 sequence (P42226 1-847): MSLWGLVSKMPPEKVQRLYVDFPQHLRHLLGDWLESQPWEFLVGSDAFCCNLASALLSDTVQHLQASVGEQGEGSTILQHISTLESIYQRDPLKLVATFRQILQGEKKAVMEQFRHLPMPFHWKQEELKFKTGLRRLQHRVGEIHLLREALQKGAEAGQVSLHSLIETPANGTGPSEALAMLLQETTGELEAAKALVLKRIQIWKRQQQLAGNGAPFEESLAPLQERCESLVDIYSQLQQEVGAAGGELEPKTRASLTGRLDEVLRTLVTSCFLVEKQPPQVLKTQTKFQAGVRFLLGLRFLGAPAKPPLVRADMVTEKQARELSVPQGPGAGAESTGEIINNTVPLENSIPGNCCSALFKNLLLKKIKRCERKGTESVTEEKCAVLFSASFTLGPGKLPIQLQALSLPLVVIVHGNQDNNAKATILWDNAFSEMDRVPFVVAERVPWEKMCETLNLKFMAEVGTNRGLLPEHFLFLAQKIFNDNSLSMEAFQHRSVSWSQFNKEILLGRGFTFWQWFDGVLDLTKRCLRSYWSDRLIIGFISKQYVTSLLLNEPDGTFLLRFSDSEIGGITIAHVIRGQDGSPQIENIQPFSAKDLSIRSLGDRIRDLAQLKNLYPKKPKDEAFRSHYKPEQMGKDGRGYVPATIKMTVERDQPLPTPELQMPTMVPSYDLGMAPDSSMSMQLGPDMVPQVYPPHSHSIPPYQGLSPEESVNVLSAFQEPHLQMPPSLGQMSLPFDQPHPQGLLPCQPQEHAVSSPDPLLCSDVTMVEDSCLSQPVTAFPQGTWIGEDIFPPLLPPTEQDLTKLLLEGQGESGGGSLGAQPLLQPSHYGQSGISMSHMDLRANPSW
Summary of the method: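 HeLa LgBiT clone 4.14 cells with CRISPR HiBiT-tagged endogenous STAT6, 5000 cells/well, compound dosed then incubated 4-24 h at 37° C, 5% CO2. Nano-Glo substrate added, 0.5 h, luminescence read as non-degraded STAT6. Terfenadine 50 μM (cell kill) defines 100% degradation.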

[1] = system: Eotaxin-3 release in human whole blood stimulated with IL-4; test: Human Whole Blood Eotaxin-3 Assay (IL-4 stimulated eotaxin-3 release); assay type: cell-based; conditions: IL-4 stimulation, 48 h, values given for compounds with >80% Emax, geometric mean
Summary of the method: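 Lithium-heparin human whole blood preincubated 2 h at 37° C with 4-fold serially diluted compounds (0.5% DMSO), then stimulated with recombinant human IL-4 ([…]) for 48 h. Eotaxin-3 (CCL26) in supernatant quantified by MSD immunoassay.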

SMILES | DC50 (STAT6) [nM] | EC50 [1] [nM]
Cc1cc(C(=O)N2CCC(CN3CCN(Cc4cc5c(cc4F)n(C4CCC(=O)NC4=O)c(=O)n5C)CC3)CC2)cc(F)c1C1=CCN([C@@H](C)c2cc3c(-n4ccc5c(c4=O)CCN5)ccnc3n2C)CC1 (stereo partly drawn) [Example 3u74, 3-(6-fluoro-5-((4-((1-(3-fluoro-5-methyl-4-(1-((S)-1-(1-methyl-4-(4-oxo-1,2,3,4-tetrahydro-5H-pyrrolo[3,2-c]pyridin-5-yl)-1H-pyrrolo[2,3-b]pyridin-2-yl)ethyl)-1,2,3,6-tetrahydro-pyridin-4-yl)benzoyl)piperidin-4-yl)methyl)piperazin-1-yl)methyl)-3-methyl-2-oxo-2,3-dihydro-1H-benzo[d]imidazol-1-yl)piperidine-2,6-dione] | 0.6 | 1.1
Cc1cc(C(=O)N2CCC(CN3CCN(Cc4ccc5c(c4)C4(CC4)C(=O)N5C4CCC(=O)NC4=O)C[C@@H]3C)CC2)cc(F)c1C1=CCN([C@@H](C)c2cc3c(-n4cc(F)c5c(c4=O)CCN5)ccnc3n2C)CC1 (stereo partly drawn) [Example 3u116, 3-(5′-(((S)-4-((1-(3-fluoro-4-(1-((S)-1-(4-(7-fluoro-4-oxo-1,2,3,4-tetrahydro-5H-pyrrolo[3,2-c]pyridin-5-yl)-1-methyl-1H-pyrrolo[2,3-b]pyridin-2-yl)ethyl)-1,2,3,6-tetrahydropyridin-4-yl)-5-methylbenzoyl)piperidin-4-yl)methyl)-3-methylpiperazin-1-yl)methyl)-2′-oxospiro[cyclopropane-1,3′-indolin]-1′-yl)piperidine-2,6-dione] | 8.7 | 6
CNc1cc(=O)n(-c2ccnc3c2cc([C@H](C)N2CC=C(c4c(C)cc(C(=O)N5CCC(CN6CCN(Cc7cc8c(cc7F)N([C@H]7CCC(=O)NC7=O)C(=O)C87CC7)CC6)CC5)cc4F)CC2)n3C)cc1F (single isomer, unassigned) [Example 3u154] | 6.4 | 10.1
CNc1ccn(-c2ccnc3c2cc([C@H](C)N2CC=C(c4c(C)cc(C(=O)N(C)c5ccc(C6CCN(Cc7ccc8c(c7)C(C)(C)C(=O)N8C7CCC(=O)NC7=O)CC6)cc5)cc4F)CC2)n3C)c(=O)c1 (stereo partly drawn) [Example 3u232, N-(4-(1-((1-(2,6-dioxopiperidin-3-yl)-3,3-dimethyl-2-oxoindolin-5-yl)methyl)-piperidin-4-yl)phenyl)-3-fluoro-N,5-dimethyl-4-(1-((S)-1-(1-methyl-4-(4-(methylamino)-2-oxopyridin-1 (2H)-yl)-1H-pyrrolo[2,3-b]pyridin-2-yl)ethyl)-1,2,3,6-tetrahydropyridin-4-yl)benzamide] | 0.1 | 0.8
Cc1cc(C(=O)N2CCC(CN3CCN(Cc4ccc5c(c4)n(C)c(=O)n5C4CCC(=O)NC4=O)C[C@@H]3C)CC2)cc(F)c1C1=CCN([C@@H](C)c2cc3c(-n4cc(F)c5c(c4=O)CCN5)ccnc3n2C)CC1 (stereo partly drawn) [Example 3u109, 3-(5-(((S)-4-((1-(3-fluoro-4-(1-((S)-1-(4-(7-fluoro-4-oxo-1,2,3,4-tetrahydro-5H-pyrrolo[3,2-c]pyridin-5-yl)-1-methyl-1H-pyrrolo[2,3-b]pyridin-2-yl)ethyl)-1,2,3,6-tetrahydropyridin-4-yl)-5-methylbenzoyl)piperidin-4-yl)methyl)-3-methylpiperazin-1-yl)methyl)-3-methyl-2-oxo-2,3-dihydro-1H-benzo[d]imidazol-1-yl)piperidine-2,6-dione] | 1.4 | 2.8
CNc1ccn(-c2ccnc3c2cc(CN2CC=C(c4c(F)cc(C(=O)N5CCC(CN6CCN(Cc7ccc8c(c7)C(C)(C)C(=O)N8[C@H]7CCC(=O)NC7=O)C[C@@H]6C)CC5)cc4F)CC2)n3C)c(=O)c1 (single isomer, unassigned) [Example 3u46] | 5.8 | 10.1
CNc1ccn(-c2ccnc3c2cc([C@H](C)N2CCC(c4c(C)cc(C(=O)N5CCC(CN6CCN(Cc7ccc8c(c7)n(C7CC7)c(=O)n8[C@H]7CCC(=O)NC7=O)C[C@@H]6C)CC5)cc4F)CC2)n3C)c(=O)c1 (single isomer, unassigned) [Example 3u198] | 1.2 | 1.6
CNc1cc(=O)n(-c2ccnc3c2cc([C@H](C)N2CC=C(c4c(C)cc(C(=O)N5CCC(CN6CCN(Cc7ccc8c(c7)n(C)c(=O)n8[C@@H]7CCC(=O)NC7=O)CC6)CC5)cc4F)CC2)n3C)cc1F (single isomer, unassigned) [Example 3u15] | 0.8 | 2.2
CNc1ccn(-c2ccnc3c2cc(CN2CC=C(c4c(C)cc(C(=O)N(C)c5ccc(C6CCN(Cc7ccc8c(c7)C(C)(C)C(=O)N8[C@@H]7CCC(=O)NC7=O)CC6)cc5)cc4F)CC2)n3C)c(=O)c1 (single isomer, unassigned) [Example 3u230] | 0.4 | 2
CNc1cc(=O)n(-c2ccnc3c2cc([C@H](C)N2CC=C(c4c(C)cc(C(=O)N5CCC(CN6CCN(c7ccc8c(c7)C7(CC7)C(=O)N8C7CCC(=O)NC7=O)C[C@@H]6C)CC5)cc4F)CC2)n3C)cc1F (stereo partly drawn) [Example 3u63, 3-(5′-((S)-4-((1-(3-fluoro-4-(1-((S)-1-(4-(5-fluoro-4-(methylamino)-2-oxopyridin-1 (2H)-yl)-1-methyl-1H-pyrrolo[2,3-b]pyridin-2-yl)ethyl)-1,2,3,6-tetrahydropyridin-4-yl)-5-methylbenzoyl)-piperidin-4-yl)methyl)-3-methylpiperazin-1-yl)-2′-oxospiro[cyclopropane-1,3′-indolin]-1′-yl)-piperidine-2,6-dione] | 12.9 | 67.3
CNc1cc(=O)n(-c2ccnc3c2cc([C@H](C)N2CC=C(c4c(C)cc(C(=O)N5CCC(CN6CCN(Cc7ccc8c(c7)C(C)(C)C(=O)N8C7CCC(=O)NC7=O)CC6)CC5)cc4F)CC2)n3C)cc1F (stereo partly drawn) [Example 3u87, 3-(5-((4-((1-(3-fluoro-4-(1-((S)-1-(4-(5-fluoro-4-(methylamino)-2-oxopyridin-1 (2H)-yl)-1-methyl-1H-pyrrolo[2,3-b]pyridin-2-yl)ethyl)-1,2,3,6-tetrahydropyridin-4-yl)-5-methylbenzoyl)piperidin-4-yl)methyl)piperazin-1-yl)methyl)-3,3-dimethyl-2-oxoindolin-1-yl)piperidine-2,6-dione] | 3.5 | 15.2
CNc1ccn(-c2ccnc3c2cc([C@H](C)N2CC=C(c4c(F)cc(C(=O)N5CCC(CN6CCN(Cc7ccc8c(c7)n(C7CC7)c(=O)n8[C@H]7CCC(=O)NC7=O)C[C@@H]6C)CC5)cc4F)CC2)n3C)c(=O)c1 (single isomer, unassigned) [Example 3u211] | 0.5 | 0.5
CNc1ccn(-c2ccnc3c2cc(CN2CCC(c4c(F)cc(C(=O)N5CCC(CN6CCN(Cc7ccc8c(c7)C(C)(C)C(=O)N8[C@@H]7CCC(=O)NC7=O)C[C@@H]6C)CC5)cc4F)CC2)n3C)c(=O)c1 (single isomer, unassigned) [Example 3u206] | 0.4 | 10.9
CNc1ccn(-c2ccnc3c2cc([C@H](C)N2CC=C(c4c(C)cc(C(=O)N5CCC(CN6CCN(Cc7cc8c(cc7F)n(C7CCC(=O)NC7=O)c(=O)n8C7CC7)C[C@@H]6C)CC5)cc4F)CC2)n3C)c(=O)c1 (stereo partly drawn) [Example 3u166, 3-(3-cyclopropyl-6-fluoro-5-(((S)-4-((1-(3-fluoro-5-methyl-4-(1-((S)-1-(1-methyl-4-(4-(methylamino)-2-oxopyridin-1 (2H)-yl)-1H-pyrrolo[2,3-b]pyridin-2-yl)ethyl)-1,2,3,6-tetrahydropyridin-4-yl)benzoyl)piperidin-4-yl)methyl)-3-methylpiperazin-1-yl)methyl)-2-oxo-2,3-dihydro-1H-benzo[d]imidazol-1-yl)piperidine-2,6-dione] | 1.1 | 1.3
CNc1ccn(-c2ccnc3c2cc([C@H](C)N2CC=C(c4c(C)cc(C(=O)N5CCC(CN6CCN(Cc7ccc8c(c7)n(C7CC7)c(=O)n8C7CCC(=O)NC7=O)C[C@@H]6C)CC5)cc4F)CC2)n3C)c(=O)c1 (stereo partly drawn) [Example 3u111, 3-(3-cyclopropyl-5-(((S)-4-((1-(3-fluoro-5-methyl-4-(1-((S)-1-(1-methyl-4-(4-(methylamino)-2-oxopyridin-1 (2H)-yl)-1H-pyrrolo[2,3-b]pyridin-2-yl)ethyl)-1,2,3,6-tetrahydropyridin-4-yl)benzoyl)piperidin-4-yl)methyl)-3-methylpiperazin-1-yl)methyl)-2-oxo-2,3-dihydro-1H-benzo[d]imidazol-1-yl)piperidine-2,6-dione] | 0.4 | 0.3
